From the CheMixHub drug solubility set

Test: xn = mol fraction of the nth substance listed, in the solute-free solvent

COc1cc2c(cc1OC)-c1cc3ccc(OC)c(OC)c3c[n+]1CC2.[Cl-] + CCO + O
solubility (g/100 g solution)
Details | 283.15 K | 288.15 K | 293.15 K | 298.15 K | 303.15 K | 308.15 K | 313.15 K | 318.15 K | 323.15 K | 328.15 K
x2 = 0.04165 | 1.22 | 1.49 | 1.87 | 2.33 | 2.87 | 3.46 | 4.17 | 4.96 | 5.87 | 6.89
x2 = 0.08908 | 1.26 | 1.54 | 1.93 | 2.4 | 2.94 | 3.56 | 4.28 | 5.08 | 6.01 | 7.05
x2 = 0.1436 | 1.34 | 1.62 | 2.03 | 2.52 | 3.14 | 3.77 | 4.52 | 5.34 | 6.28 | 7.33
x2 = 0.2068 | 1.44 | 1.74 | 2.17 | 2.68 | 3.27 | 3.94 | 4.73 | 5.59 | 6.6 | 7.72
x2 = 0.2812 | 1.57 | 1.89 | 2.37 | 2.96 | 3.58 | 4.32 | 5.15 | 6.02 | 7.08 | 8.21
x2 = 0.3698 | 1.72 | 2.06 | 2.54 | 3.13 | 3.8 | 4.55 | 5.44 | 6.39 | 7.51 | 8.77
x2 = 0.4772 | 1.88 | 2.23 | 2.75 | 3.38 | 4.16 | 5.02 | 5.95 | 6.91 | 8.09 | 9.31
x2 = 0.6101 | 2.02 | 2.39 | 2.94 | 3.6 | 4.33 | 5.16 | 6.14 | 7.16 | 8.39 | 9.76
x2 = 0.7788 | 2.11 | 2.48 | 3.08 | 3.79 | 4.53 | 5.41 | 6.4 | 7.47 | 8.65 | 9.96

Nc1[nH]c(=O)ncc1F + CS(C)=O + CC(C)O
solubility (g/100 g solution)
Details | 283.15 K | 288.15 K | 293.15 K | 298.15 K | 303.15 K | 308.15 K | 313.15 K | 318.15 K | 323.15 K
x2 = 0.0788 | 0.0921 | 0.111 | 0.133 | 0.162 | 0.192 | 0.228 | 0.268 | 0.315 | 0.37
x2 = 0.1614 | 0.168 | 0.202 | 0.237 | 0.282 | 0.331 | 0.386 | 0.451 | 0.526 | 0.615
x2 = 0.2481 | 0.248 | 0.291 | 0.341 | 0.401 | 0.466 | 0.543 | 0.625 | 0.717 | 0.826
x2 = 0.3392 | 0.336 | 0.388 | 0.451 | 0.521 | 0.606 | 0.693 | 0.798 | 0.914 | 1.05
x2 = 0.435 | 0.424 | 0.487 | 0.569 | 0.648 | 0.743 | 0.852 | 0.967 | 1.1 | 1.25
x2 = 0.5359 | 0.503 | 0.57 | 0.645 | 0.734 | 0.837 | 0.957 | 1.09 | 1.24 | 1.41
x2 = 0.6424 | 0.591 | 0.662 | 0.745 | 0.833 | 0.948 | 1.08 | 1.21 | 1.38 | 1.55
x2 = 0.7549 | 0.704 | 0.789 | 0.876 | 0.987 | 1.11 | 1.25 | 1.41 | 1.59 | 1.77
x2 = 0.8739 | 0.823 | 0.901 | 1 | 1.11 | 1.24 | 1.4 | 1.57 | 1.75 | 1.95

CC(N)C(=O)O (configuration not stated) + O + CCO
solubility (g/100 g solution)
Details | x2 = 0.1 | x2 = 0.2 | x2 = 0.3 | x2 = 0.4 | x2 = 0.5 | x2 = 0.6 | x2 = 0.7 | x2 = 0.8 | x2 = 0.9
283.15 K | 0.0667 | 0.0909 | 0.102 | 0.126 | 0.31 | 0.534 | 1.1 | 1.98 | 4.36
293.15 K | 0.0741 | 0.0951 | 0.11 | 0.185 | 0.389 | 0.66 | 1.35 | 2.59 | 5.5
303.15 K | 0.0895 | 0.102 | 0.127 | 0.245 | 0.454 | 0.83 | 1.68 | 3.23 | 6.66
313.15 K | 0.0998 | 0.114 | 0.136 | 0.268 | 0.573 | 1.05 | 2.12 | 3.96 | 7.99
323.15 K | 0.104 | 0.124 | 0.196 | 0.347 | 0.688 | 1.37 | 2.62 | 4.97 | 9.53

OCCN(CCO)c1nc(N2CCCCC2)c2nc(N(CCO)CCO)nc(N3CCCCC3)c2n1 + CO + O
solubility (g/100 g solution)
Details | 293.15 K | 298.15 K | 303.15 K | 308.15 K | 313.15 K | 318.15 K | 323.15 K | 328.15 K
x2 = 0.3 | 0.0465 | 0.0712 | 0.121 | 0.178 | 0.281 | 0.39 | 0.543 | 0.757
x2 = 0.4 | 0.197 | 0.312 | 0.48 | 0.676 | 1.01 | 1.48 | 2.27 | 3.26
x2 = 0.5 | 0.513 | 0.826 | 1.16 | 1.64 | 2.54 | 3.82 | 6.13 | 9.01
x2 = 0.6 | 1.12 | 1.6 | 2.21 | 3.21 | 4.77 | 7.29 | 11.6 | 18
x2 = 0.7 | 1.8 | 2.43 | 3.45 | 5.11 | 7.41 | 11.5 | 17.4 | 26.3
x2 = 0.8 | 2.43 | 3.31 | 4.57 | 6.51 | 9.53 | 14.1 | 20.9 | 29.2
x2 = 0.9 | 2.81 | 3.85 | 5.46 | 7.53 | 10.9 | 15.8 | 22.7 | 31.9

Nc1cccc(S(=O)(=O)c2cccc(N)c2)c1 + CO + O
solubility (g/100 g solution)
Details | 283.15 K | 288.15 K | 293.15 K | 298.15 K | 303.15 K | 308.15 K | 313.15 K | 318.15 K | 323.15 K | 328.15 K
x2 = 0.05881 | 0.0853 | 0.113 | 0.149 | 0.202 | 0.26 | 0.333 | 0.429 | 0.552 | 0.675 | 0.867
x2 = 0.1233 | 0.182 | 0.244 | 0.31 | 0.4 | 0.526 | 0.654 | 0.83 | 1.04 | 1.28 | 1.59
x2 = 0.1942 | 0.315 | 0.413 | 0.533 | 0.675 | 0.849 | 1.08 | 1.34 | 1.67 | 2.05 | 2.48
x2 = 0.2727 | 0.512 | 0.66 | 0.84 | 1.04 | 1.32 | 1.63 | 2 | 2.41 | 2.93 | 3.56
x2 = 0.3599 | 0.734 | 0.92 | 1.16 | 1.44 | 1.77 | 2.18 | 2.64 | 3.19 | 3.81 | 4.63
x2 = 0.4576 | 0.977 | 1.22 | 1.53 | 1.89 | 2.32 | 2.81 | 3.41 | 4.06 | 4.85 | 5.78
x2 = 0.5675 | 1.28 | 1.57 | 1.95 | 2.42 | 2.93 | 3.58 | 4.23 | 5.08 | 5.95 | 7.08
x2 = 0.6923 | 1.59 | 1.95 | 2.37 | 2.95 | 3.56 | 4.28 | 5.14 | 6.1 | 7.13 | 8.38
x2 = 0.835 | 1.93 | 2.32 | 2.83 | 3.42 | 4.15 | 4.97 | 5.91 | 6.97 | 8.2 | 9.54
